For orientation: fold induction means the signal under treatment as a multiple of the control signal.

In the first assay the target is T1, Recombinant human liver GK1 (GST-GK) (Homo sapiens, UniProt P35557).
T1 construct: made in house; host or cells: E. coli
T1 sequence (P35557 1-466 isoform P35557-2): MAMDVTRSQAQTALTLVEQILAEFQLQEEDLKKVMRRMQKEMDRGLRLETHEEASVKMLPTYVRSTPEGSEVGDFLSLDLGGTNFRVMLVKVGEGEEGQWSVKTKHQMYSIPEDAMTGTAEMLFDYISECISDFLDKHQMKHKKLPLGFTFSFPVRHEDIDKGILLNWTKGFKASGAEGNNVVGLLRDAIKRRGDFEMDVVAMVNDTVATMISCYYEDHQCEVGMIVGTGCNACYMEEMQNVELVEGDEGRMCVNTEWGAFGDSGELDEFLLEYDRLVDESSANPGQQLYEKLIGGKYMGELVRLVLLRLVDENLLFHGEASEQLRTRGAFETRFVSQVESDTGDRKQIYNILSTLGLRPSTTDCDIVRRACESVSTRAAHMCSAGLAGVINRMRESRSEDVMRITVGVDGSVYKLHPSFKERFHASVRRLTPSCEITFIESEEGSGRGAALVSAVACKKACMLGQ
Nature of the assay: In vitro glucokinase activity, G6PDH-coupled spectrophotometric assay. The format is biochemical. To be noted: 5 mM D-glucose, 30° C., pH 7.1. On the procedure: Glucokinase In Vitro Assay Protocol: Glucokinase (GK) was assayed by coupling the production of glucose-6-phosphate to the generation of NADH with glucose-6-phosphate dehydrogenase (G6PDH, 0.75-1 kunits/mg; Boehringer Mannheim, Indianapolis, Ind.) from Leuconostoc mesenteroides as the coupling enzyme (Scheme 2).
Recombinant human liver GK1 was expressed in E. coli as a glutathione S-transferase fusion protein (GST-GK) [Liang et al, 1995] and was purified by chromatography over a glutathione-Sepharose 4B affinity column using the procedure provided by the manufacturer (Amersham Pharmacia Biotech, Piscataway, N.J.).
The assay was conducted at 30° C. in a flat bottom 96-well tissue culture plate from Costar (Cambridge, Mass.) with a final incubation volume of 120 μL. The incubation reaction contained the following: 25 mM Hepes buffer (pH 7.1), 25 mM KCl, 5 mM D-glucose, 1 mM ATP, 1.8 mM NAD, 2 mM MgCl2, 1 μM sorbitol-6-phosphate, 1 mM dithiothreitol, test drug or 10% dimethylsulfoxide, ˜7 units/ml G6PDH, and GK (see below). All organic reagents were >98% pure and were from Boehringer Mannheim with the exceptions of D-glucose and Hepes which were from Sigma Chemical Co, St Louis, Mo. Test compounds were dissolved in dimethylsulfoxide and were added to the incubation reaction minus GST-GK in a volume of 12 μL to yield a final dimethylsulfoxide concentration of 10%. This mix was pre-incubated in the temperature controlled chamber of a SPECTRAmax 250 microplate spectrophotometer (Molecular Devices Corporation, Sunnyvale, Calif.) for 10 minutes to allow temperature equilibrium and then the reaction was started by the addition of 20 μL GST-GK.
After addition of enzyme, the increase in optical density (OD) at 340 nm was monitored spectrophotometrically to determine the rate of change (OD340 per min). The GK activity (OD340/min) in control wells (10% dimethylsulfoxide minus GK activators) was compared with the activity in wells containing test GK activators, and the concentration of activator that produced a 50% increase in the activity of GK, i.e., the SC1.5, was calculated.
Take `COc1ccc2c(c1)CC(=O)N2C(CC1CCCC1)C(=O)Nc1ccn(C)n1` (stereo not drawn) [Example 50, 3-Cyclopentyl-2-(5-methoxy-2-oxo-2,3-dihydro-indol-1-yl)-N-(1-methyl-1H-pyrazol-3-yl)-propionamide]: the “SC1.5 (concentration of activator that produced a 50% increase in the activity of GK)” value was 8.39 µM.
Take `CC(C)CC(C(=O)Nc1nccs1)N1C(=O)C(=O)c2ccc(Cl)cc21` (stereo not drawn) [Example 109, 2-(6-Chloro-2,3-dioxo-2,3-dihydro-indol-1-yl)-4-methyl-pentanoic acid thiazol-2-ylamide]: the “SC1.5 (concentration of activator that produced a 50% increase in the activity of GK)” value is 3.29 µM.
Take `O=C1C(=O)N(C(CC2CCCC2)C(=O)Nc2cnccn2)c2cc(Cl)ccc21` (stereo not drawn) [Example 120, 2-(6-Chloro-2,3-dioxo-2,3-dihydro-indol-1-yl)-3-cyclopentyl-N-pyrazin-2-yl-propionamide]: the “SC1.5 (concentration of activator that produced a 50% increase in the activity of GK)” value was found to be 0.9 µM.
For `Cc1ccc2c(c1)CC(=O)N2C(CC(C)C)C(=O)Nc1cnccn1` (stereo not drawn) [Example 91, 4-Methyl-2-(5-methyl-2-oxo-2,3-dihydro-indol-1-yl)-pentanoic acid pyrazin-2-ylamide], the “SC1.5 (concentration of activator that produced a 50% increase in the activity of GK)” value stood at 28.45 µM.
With `O=C(Nc1cnccn1)C(CC1CCCC1)N1C(=O)Cc2ccc(Br)cc21` (stereo not drawn) [Example 133, 2-(6-Bromo-2-oxo-2,3-dihydro-indol-1-yl)-3-cyclopentyl-N-pyrazin-2-yl-propionamide], the “SC1.5 (concentration of activator that produced a 50% increase in the activity of GK)” value turned out to be 0.34 µM.
Turning to `O=C(Nc1nccs1)C(CC1CCCC1)N1C(=O)Cc2ccc(Cl)cc21` (stereo not drawn) [Example 123, 2-(6-Chloro-2-oxo-2,3-dihydro-indol-1-yl)-3-cyclopentyl-N-thiazol-2-yl-propionamide], the “SC1.5 (concentration of activator that produced a 50% increase in the activity of GK)” value was found to be 0.27 µM.
Same read-out and setting: to `O=C1C(=O)N(C(CC2CCCC2)C(=O)Nc2ccccn2)c2cccc(Cl)c21` (stereo not drawn) [Example 14, 2-(4-Chloro-2,3-dioxo-2,3-dihydro-indol-1-yl)-3-cyclopentyl-N-pyridin-2-yl-propionamide] belongs 1.9 µM; to `CC(C)CC(C(=O)Nc1ccccn1)N1C(=O)Cc2cc(Cl)ccc21` (stereo not drawn) [Example 108, 2-(5-Chloro-2-oxo-2,3-dihydro-indol-1-yl)-4-methyl-pentanoic acid pyridin-2-ylamide], 4.95 µM.
For the molecule `Cc1ccc2c(c1)CC(=O)N2C(CC(C)C)C(=O)Nc1ccccn1` (stereo not drawn) [Example 90, 4-Methyl-2-(5-methyl-2-oxo-2,3-dihydro-indol-1-yl)-pentanoic acid pyridin-2-ylamide], the “SC1.5 (concentration of activator that produced a 50% increase in the activity of GK)” value was determined as 12.84 µM.
Same read-out and setting: to `Cn1ccc(NC(=O)C(CC2CCCC2)N2C(=O)C(=O)c3cc(Br)ccc32)n1` (stereo not drawn) [Example 62, 2-(5-Bromo-2,3-dioxo-2,3-dihydro-indol-1-yl)-3-cyclopentyl-N-(1-methyl-1H-pyrazol-3-yl)-propionamide] belongs 6.18 µM; to `O=C1C(=O)N(C(CC2CCCC2)C(=O)Nc2nccs2)c2cc(Cl)ccc21` (stereo not drawn) [Example 117, 2-(6-Chloro-2,3-dioxo-2,3-dihydro-indol-1-yl)-3-cyclopentyl-N-thiazol-2-yl-propionamide], 0.6 µM.
`Cn1ccc(NC(=O)C(CC2CCCC2)N2C(=O)C(=O)c3ccc(Cl)cc32)n1` (stereo not drawn) [Example 119, 2-(6-Chloro-2,3-dioxo-2,3-dihydro-indol-1-yl)-3-cyclopentyl-N-(1-methyl-1H-pyrazol-3-yl)-propionamide]: the “SC1.5 (concentration of activator that produced a 50% increase in the activity of GK)” value was found to be 2.24 µM.
Same read-out and setting: to `Cn1ccc(NC(=O)C(CC2CCCC2)N2C(=O)Cc3ccc(Br)cc32)n1` (stereo not drawn) [Example 136, 2-(6-Bromo-2-oxo-2,3-dihydro-indol-1-yl)-3-cyclopentyl-N-(1-methyl-1H-pyrazol-3-yl)-propionamide] belongs 0.88 µM; to `CC(C)CC(C(=O)Nc1cnccn1)N1C(=O)C(=O)c2ccc(Cl)cc21` (stereo not drawn) [Example 112, 2-(6-Chloro-2,3-dioxo-2,3-dihydro-indol-1-yl)-4-methyl-pentanoic acid pyrazin-2-ylamide], 4.85 µM; to `CC(C)CC(C(=O)Nc1ccccn1)N1C(=O)Cc2ccccc21` (stereo not drawn) [Example 12, 4-Methyl-2-(2-oxo-2,3-dihydro-indol-1-yl)-pentanoic acid pyridin-2-ylamide], 18.09 µM.
Turning to `O=C(Nc1cnccn1)C(CC1CCCC1)N1C(=O)Cc2ccc(F)cc21` (stereo not drawn) [Example 128, 3-Cyclopentyl-2-(6-fluoro-2-oxo-2,3-dihydro-indol-1-yl)-N-pyrazin-2-yl-propionamide], the “SC1.5 (concentration of activator that produced a 50% increase in the activity of GK)” value came to 0.81 µM.
On to `O=C(Nc1ccccn1)C(CC1CCCC1)N1C(=O)Cc2ccc(Br)cc21` (stereo not drawn) [Example 135, 2-(6-Bromo-2-oxo-2,3-dihydro-indol-1-yl)-3-cyclopentyl-N-pyridin-2-yl-propionamide], for which the “SC1.5 (concentration of activator that produced a 50% increase in the activity of GK)” value is 0.12 µM.
On the same count and under the same terms, to `CC(C)CC(C(=O)Nc1nccs1)N1C(=O)Cc2ccc(Cl)cc21` (stereo not drawn) [Example 115, 2-(6-Chloro-2-oxo-2,3-dihydro-indol-1-yl)-4-methyl-pentanoic acid thiazol-2-ylamide] belongs 1.48 µM; to `O=C1C(=O)N(C(CC2CCCC2)C(=O)Nc2nccs2)c2ccc(Br)cc21` (stereo not drawn) [Example 63, 2-(5-Bromo-2,3-dioxo-2,3-dihydro-indol-1-yl)-3-cyclopentyl-N-thiazol-2-yl-propionamide], 2.18 µM.
As to `Cc1ccc2c(c1)N(C(CC1CCCC1)C(=O)Nc1ccn(C)n1)C(=O)C2` (stereo not drawn) [Example 131, 3-Cyclopentyl-2-(6-methyl-2-oxo-2,3-dihydro-indol-1-yl)-N-(1-methyl-1H-pyrazol-3-yl)-propionamide], the “SC1.5 (concentration of activator that produced a 50% increase in the activity of GK)” value worked out at 2.28 µM.

The assay is the same for the next values; noted with them: @ 30 uM; 5 mM D-glucose, 30° C.
For `COc1ccc2c(c1)C(=O)C(=O)N2C(CC(C)C)C(=O)Nc1ccccn1` (stereo not drawn) [Example 54, 2-(5-Methoxy-2,3-dioxo-2,3-dihydro-indol-1-yl)-4-methyl-pentanoic acid pyridin-2-ylamide], the fold induction at 30 µM was 1.49.
On the same count and under the same terms, with `Cc1ccc2c(c1)CC(=O)N2C(CC(C)C)C(=O)Nc1ccn(C)n1` (stereo not drawn) [Example 89, 4-Methyl-2-(5-methyl-2-oxo-2,3-dihydro-indol-1-yl)-pentanoic acid (1-methyl-1H-pyrazol-3-yl)-amide] the figure was 1.23.
Regarding `CC(C)CC(C(=O)Nc1ccn(C)n1)N1C(=O)C(=O)c2cc(Cl)ccc21` (stereo not drawn) [Example 104, 2-(5-Chloro-2,3-dioxo-2,3-dihydro-indol-1-yl)-4-methyl-pentanoic acid (1-methyl-1H-pyrazol-3-yl)-amide], the fold induction at 30 µM worked out at 1.21.
As for `CC(C)CC(C(=O)Nc1ccn(C)n1)N1C(=O)C(=O)c2cc(Br)ccc21` (stereo not drawn) [Example 70, 2-(5-Bromo-2,3-dioxo-2,3-dihydro-indol-1-yl)-4-methyl-pentanoic acid (1-methyl-1H-pyrazol-3-yl)-amide], the fold induction at 30 µM amounted to 1.32.
The same measure, in the same setting: with `CC(C)CC(C(=O)Nc1cnccn1)N1C(=O)C(=O)c2cc(Cl)ccc21` (stereo not drawn) [Example 103, 2-(5-Chloro-2,3-dioxo-2,3-dihydro-indol-1-yl)-4-methyl-pentanoic acid pyrazin-2-ylamide] the figure was 1.3.
As for `CC(C)CC(C(=O)Nc1nccs1)N1C(=O)C(=O)c2ccccc21` (stereo not drawn) [Example 10, 2-(2,3-Dioxo-2,3-dihydro-indol-1-yl)-4-methyl-pentanoic acid thiazol-2-ylamide], the fold induction at 30 µM is 1.2.
With `Cc1ccc2c(c1)C(=O)C(=O)N2C(CC(C)C)C(=O)Nc1nccs1` (stereo not drawn) [Example 87, 4-Methyl-2-(5-methyl-2,3-dioxo-2,3-dihydro-indol-1-yl)-pentanoic acid thiazol-2-ylamide], the fold induction at 30 µM is 1.16.

The values are drawn from patent US20120142705A1, “ISATIN AND OXINDOLE COMPOUNDS” (priority 2010, published 2012).
